{"source": "ChEMBL document CHEMBL2016506", "about": "“Glucose-aspirin: Synthesis and in vitro anti-cancer activity studies” (Bioorg Med Chem Lett, 2012)", "key": {"PC-3 [1]": {"tested_on": "PC-3", "test": "Cytotoxicity against human PC3 cells after 24 hrs by alamar blue assay", "assay_type": "functional, cell-based", "details": "PC-3, 24 h"}, "PC-3 [2]": {"tested_on": "PC-3", "test": "Cytotoxicity against human PC3 cells after 48 hrs by alamar blue assay", "assay_type": "functional, cell-based", "details": "PC-3, 48 h"}, "SK-BR-3 [3]": {"tested_on": "SK-BR-3", "test": "Growth inhibition of human SKBR3 cells at 2 x 10 '-3 M to 1.5 x 10^-4 M after 24 hrs by alamar blue assay", "assay_type": "functional"}, "PANC-1 [4]": {"tested_on": "PANC-1", "test": "Growth inhibition of human PANC1 cells at 2 x 10 '-3 M to 1.5 x 10^-4 M after 24 hrs by alamar blue assay", "assay_type": "functional"}, "PC-3 [5]": {"tested_on": "PC-3", "test": "Growth inhibition of human PC3 cells at 2 x 10 '-3 M to 1.5 x 10^-4 M after 24 hrs by alamar blue assay", "assay_type": "functional"}, "SK-BR-3 [6]": {"tested_on": "SK-BR-3", "test": "Growth inhibition of human SKBR3 cells at 300 uM after 48 hrs by alamar blue assay", "assay_type": "functional"}, "PANC-1 [7]": {"tested_on": "PANC-1", "test": "Growth inhibition of human PANC1 cells at 300 uM after 48 hrs by alamar blue assay", "assay_type": "functional"}, "PC-3 [8]": {"tested_on": "PC-3", "test": "Growth inhibition of human PC3 cells at 300 uM after 48 hrs by alamar blue assay", "assay_type": "functional"}, "WI-38 [9]": {"tested_on": "WI-38", "test": "Cytotoxicity against human WI38 cells at 2 x 10^-3 to 3 x 10^-4 M after 24 hrs by alamar blue assay", "assay_type": "cell-based", "details": "wi-38, 24 h"}, "WI-38 [10]": {"tested_on": "WI-38", "test": "Cytotoxicity against human WI38 cells at 2 x 10^-3 to 3 x 10^-4 M after 48 hrs by alamar blue assay", "assay_type": "cell-based", "details": "wi-38, 48 h"}, "[11]": {"test": "Drug metabolism in human serum assessed as compound hydrolysis after 3 hrs by HPLC analysis", "assay_type": "ADME, cell-free", "details": "read-out: Drug metabolism"}, "[12]": {"test": "Aqueous solubility of the compound in 43 ml water", "assay_type": "physicochemical", "details": "buffer"}, "PANC-1 [13]": {"tested_on": "PANC-1", "test": "Growth inhibition of human PANC1 cells at 2 x 10^-3 to 1.5 x 10^-4 M after 48 hrs by alamar blue assay", "assay_type": "functional, cell-based"}, "SK-BR-3 [14]": {"tested_on": "SK-BR-3", "test": "Growth inhibition of human SKBR3 cells at 2 x 10^-3 to 1.5 x 10^-4 M after 48 hrs by alamar blue assay", "assay_type": "functional, cell-based"}, "PC-3 [15]": {"tested_on": "PC-3", "test": "Growth inhibition of human PC3 cells at 2 x 10^-3 to 1.5 x 10^-4 M after 48 hrs by alamar blue assay", "assay_type": "functional, cell-based"}, "SK-BR-3 [16]": {"tested_on": "SK-BR-3", "test": "Cytotoxicity against human SKBR3 cells after 24 hrs by alamar blue assay", "assay_type": "functional, cell-based", "details": "SK-BR-3, 24 h"}, "WI-38 [17]": {"tested_on": "WI-38", "test": "Cytotoxicity against human WI38 cells after 24 hrs by alamar blue assay", "assay_type": "cell-based", "details": "WI-38, 24 h"}, "PANC-1 [18]": {"tested_on": "PANC-1", "test": "Cytotoxicity against human PANC1 cells after 24 hrs by alamar blue assay", "assay_type": "functional, cell-based", "details": "PANC-1, 24 h"}, "SK-BR-3 [19]": {"tested_on": "SK-BR-3", "test": "Cytotoxicity against human SKBR3 cells after 48 hrs by alamar blue assay", "assay_type": "functional, cell-based", "details": "SK-BR-3, 48 h"}, "WI-38 [20]": {"tested_on": "WI-38", "test": "Cytotoxicity against human WI38 cells after 48 hrs by alamar blue assay", "assay_type": "cell-based", "details": "WI-38, 48 h"}, "PANC-1 [21]": {"tested_on": "PANC-1", "test": "Cytotoxicity against human PANC1 cells after 48 hrs by alamar blue assay", "assay_type": "functional, cell-based", "details": "PANC-1, 48 h"}, "SK-BR-3 [22]": {"tested_on": "SK-BR-3", "test": "Ratio of IC50 for aspirin to compound IC50 for human SKBR3 cells", "assay_type": "functional"}, "PANC-1 [23]": {"tested_on": "PANC-1", "test": "Ratio of IC50 for aspirin to compound IC50 for human PANC1 cells", "assay_type": "functional"}, "PC-3 [24]": {"tested_on": "PC-3", "test": "Ratio of IC50 for aspirin to compound IC50 for human PC3 cells", "assay_type": "functional"}, "WI-38 [25]": {"tested_on": "WI-38", "test": "Cytotoxicity against human WI38 cells at 300 uM after 24 hrs by alamar blue assay", "assay_type": "cell-based", "details": "wi-38, 24 h"}, "SK-BR-3 [26]": {"tested_on": "SK-BR-3", "test": "Growth inhibition of human SKBR3 cells at 150 uM after 48 hrs by alamar blue assay", "assay_type": "functional", "details": "SK-BR-3, 48 h, read-out: GI"}, "PANC-1 [27]": {"tested_on": "PANC-1", "test": "Growth inhibition of human PANC1 cells at 150 uM after 48 hrs by alamar blue assay", "assay_type": "functional", "details": "PANC-1, 48 h, read-out: GI"}, "PC-3 [28]": {"tested_on": "PC-3", "test": "Growth inhibition of human PC3 cells at 150 uM after 48 hrs by alamar blue assay", "assay_type": "functional", "details": "PC-3, 48 h, read-out: GI"}, "WI-38 [29]": {"tested_on": "WI-38", "test": "Growth stimulation of human WI38 cells at 2 x 10^-3 to 3 x 10^-4 M after 24 to 48 hrs by alamar blue assay", "assay_type": "functional, cell-based"}, "PC-3 [30]": {"tested_on": "PC-3", "test": "Growth stimulation of human PC3 cells at 2 x 10^-3 M after 24 to 48 hrs by alamar blue assay", "assay_type": "functional, cell-based"}, "[31]": {"test": "Aqueous solubility of the compound in 300 ml water", "assay_type": "physicochemical", "details": "buffer"}, "SK-BR-3 [32]": {"tested_on": "SK-BR-3", "test": "Growth inhibition of human SKBR3 cells at 300 uM after 24 hrs by alamar blue assay", "assay_type": "functional", "details": "SK-BR-3, 24 h, read-out: GI"}, "PANC-1 [33]": {"tested_on": "PANC-1", "test": "Growth inhibition of human PANC1 cells at 300 uM after 24 hrs by alamar blue assay", "assay_type": "functional", "details": "PANC-1, 24 h, read-out: GI"}, "PC-3 [34]": {"tested_on": "PC-3", "test": "Growth inhibition of human PC3 cells at 300 uM after 24 hrs by alamar blue assay", "assay_type": "functional", "details": "PC-3, 24 h, read-out: GI"}}, "note": "The source made the active and inactive calls. No cut-off for these calls is given here."}
{"smiles": "CC(=O)Oc1ccccc1C(=O)O", "note": "[ASPIRIN]", "values": [{"measurement": "IC50", "setting": "PC-3 [1]", "result": 771, "unit": "µM"}, {"measurement": "IC50", "setting": "PC-3 [2]", "result": 782, "unit": "µM"}, {"measurement": "growth inhibition (GI)", "setting": "SK-BR-3 [3]", "result": "inactive"}, {"measurement": "growth inhibition (GI)", "setting": "PANC-1 [4]", "result": "inactive"}, {"measurement": "growth inhibition (GI)", "setting": "PC-3 [5]", "result": "inactive"}, {"measurement": "growth inhibition (GI)", "setting": "SK-BR-3 [6]", "result": "Active"}, {"measurement": "growth inhibition (GI)", "setting": "PANC-1 [7]", "result": "Active"}, {"measurement": "growth inhibition (GI)", "setting": "PC-3 [8]", "result": "Active"}, {"measurement": "Activity", "setting": "WI-38 [9]", "result": "Toxic"}, {"measurement": "Activity", "setting": "WI-38 [10]", "result": "Toxic"}, {"measurement": "metabolised at 3 h", "setting": "[11]", "result": 47, "unit": "%"}, {"measurement": "solubility", "setting": "[12]", "result": "soluble"}, {"measurement": "growth inhibition (GI)", "setting": "PANC-1 [13]", "result": "inactive"}, {"measurement": "growth inhibition (GI)", "setting": "SK-BR-3 [14]", "result": "inactive"}, {"measurement": "growth inhibition (GI)", "setting": "PC-3 [15]", "result": "inactive"}]}
{"smiles": "CC(=O)Oc1ccccc1C(=O)O[C@@H]1[C@@H](O)[C@@H](O)O[C@H](CO)[C@H]1O", "values": [{"measurement": "IC50", "setting": "SK-BR-3 [16]", "result": 201, "unit": "µM"}, {"measurement": "IC50", "setting": "WI-38 [17]", "result": 376, "unit": "µM"}, {"measurement": "IC50", "setting": "PANC-1 [18]", "result": 399, "unit": "µM"}, {"measurement": "IC50", "setting": "PC-3 [1]", "result": 83.2, "unit": "µM"}, {"measurement": "IC50", "setting": "SK-BR-3 [19]", "result": 87.8, "unit": "µM"}, {"measurement": "IC50", "setting": "WI-38 [20]", "result": 310, "unit": "µM"}, {"measurement": "IC50", "setting": "PANC-1 [21]", "result": 90.5, "unit": "µM"}, {"measurement": "IC50", "setting": "PC-3 [2]", "result": 81.4, "unit": "µM"}, {"measurement": "Ratio IC50", "setting": "SK-BR-3 [22]", "result": 8}, {"measurement": "Ratio IC50", "setting": "PANC-1 [23]", "result": 8}, {"measurement": "Ratio IC50", "setting": "PC-3 [24]", "result": 8}, {"measurement": "growth inhibition (GI)", "setting": "SK-BR-3 [3]", "result": 20, "unit": "%"}, {"measurement": "growth inhibition (GI)", "setting": "PANC-1 [4]", "result": 20, "unit": "%"}, {"measurement": "growth inhibition (GI)", "setting": "PC-3 [5]", "result": 20, "unit": "%"}, {"measurement": "Activity", "setting": "WI-38 [25]", "result": "Non-toxic"}, {"measurement": "inhibition of growth at 300 µM", "setting": "SK-BR-3 [6]; SK-BR-3, 48 h, read-out: GI", "result": 90, "unit": "%"}, {"measurement": "inhibition of growth at 150 µM", "setting": "SK-BR-3 [26]", "result": 60, "unit": "%"}, {"measurement": "inhibition of growth at 300 µM", "setting": "PANC-1 [7]; PANC-1, 48 h, read-out: GI", "result": 70, "unit": "%"}, {"measurement": "inhibition of growth at 150 µM", "setting": "PANC-1 [27]", "result": 60, "unit": "%"}, {"measurement": "inhibition of growth at 300 µM", "setting": "PC-3 [8]; PC-3, 48 h, read-out: GI", "result": 85, "unit": "%"}, {"measurement": "inhibition of growth at 150 µM", "setting": "PC-3 [28]", "result": 65, "unit": "%"}, {"measurement": "Activity", "setting": "WI-38 [29]", "result": "Active"}, {"measurement": "Activity", "setting": "PC-3 [30]", "result": "Active"}, {"measurement": "metabolised at 3 h", "setting": "[11]", "result": 27, "unit": "%"}, {"measurement": "solubility", "setting": "[31]", "result": "soluble"}, {"measurement": "inhibition of growth at 300 µM", "setting": "SK-BR-3 [32]", "result": 60, "unit": "%"}, {"measurement": "inhibition of growth at 300 µM", "setting": "PANC-1 [33]", "result": 60, "unit": "%"}, {"measurement": "inhibition of growth at 300 µM", "setting": "PC-3 [34]", "result": 60, "unit": "%"}]}
